In US20070027130A1, “Tricyclic 6-alkylidene-penem beta-lactamase inhibitors and beta-lactam antibiotic combination: a broad spectrum antibiotic” (priority 2005, published 2007):
≈ marks a conversion by molar mass, not a printed value. Where two headings read alike, the source gives them in different places.

What was measured:
Experiment in all cases: MIC microbroth dilution
Assay type in all cases: cell-based
[1] = test system: K. pn GC 1554 (TEM-1 + TEM-26 + SHV-1); settings: Klebsiella pneumoniae, β-lactamase class A, A (ESBL), MHBII, 35° C. 18 hr, read-out: Minimal Inhibitory Concentration
Procedure: (§1) The in vitro activities of the antibiotics were determined by the microbroth dilution method as recommended by the National Committee for Clinical Laboratory Standards (NCCLS). (NCCLS. 2000. Methods for Dilution Antimicrobial Susceptibility Tests for Bacteria That Grow Aerobically; Approved Standards: M7-A5, vol. 19. National Committee for Clinical Laboratory Standards, Villanova, Pa.). Mueller-Hinton II broth (MHBII) (BBL Cockeysville, Md.), was used for the testing procedure. […]. The plates were incubated for 18-22 hours at 35 C. in ambient air.

[2] = test system: E. cloacae PT 1494 Inducible AmpC; settings: Enterobacter cloacae, β-lactamase class C, MHBII, 35° C. 18 hr, read-out: Minimal Inhibitory Concentration
Procedure: as §1

[3] = test system: S. marcescens GC 4145 Inducible AmpC; settings: Serratia marcescens, β-lactamase class C, MHBII, 35° C. 18 hr, read-out: Minimal Inhibitory Concentration
Procedure: as §1

[4] = test system: P. aeruginosa ATCC 27853 AmpC-inducable; settings: Pseudomonas aeruginosa, ATCC27853, β-lactamase class C, MHBII, 35° C. 18 hr, read-out: Minimal Inhibitory Concentration
Procedure: as §1

[5] = test system: K. pn GC 6494 (TEM-1 + SHV-5); settings: Klebsiella pneumoniae, β-lactamase class A, A (ESBL), MHBII, 35° C. 18 hr, read-out: Minimal Inhibitory Concentration
Procedure: as §1

[6] = test system: K. pneumoniae GC 7822 Act 1; settings: Klebsiella pneumoniae, GC7822ACT1, β-lactamase class C, MHBII, 35° C. 18 hr, read-out: Minimal Inhibitory Concentration
Procedure: as §1

[7] = test system: S. typhimurium GC 4198 SHV-1 CTX-M-5; settings: Salmonella enterica, 18 h, read-out: Minimal Inhibitory Concentration
Procedure: as §1

[8] = test system: E. aerogenes GC 7036 TEM-24, Amp C inducable; settings: Klebsiella aerogenes, β-lactamase class A (ESBL), MHBII, 35° C. 18 hr, read-out: Minimal Inhibitory Concentration
Procedure: as §1

[9] = test system: K. pn GC 3057 (CAZ-R; P/T-R); settings: Klebsiella pneumoniae, β-lactamase class A, A (ESBL), MHBII, 35° C. 18 hr, read-out: Minimal Inhibitory Concentration
Procedure: as §1

[10] = test system: K. pn GC 6488 (TEM-1 + SHV-5 + SHV-7); settings: Klebsiella pneumoniae, β-lactamase class A, A (ESBL), MHBII, 35° C. 18 hr, read-out: Minimal Inhibitory Concentration
Procedure: as §1

[11] = test system: K. pneumoniae GC 7821 DHA 1; settings: Klebsiella pneumoniae, GC7821DHA1, β-lactamase class C, MHBII, 35° C. 18 hr, read-out: Minimal Inhibitory Concentration
Procedure: as §1

K. pn GC 1830 (SHV-2) = settings: Klebsiella pneumoniae, β-lactamase class A (ESBL), MHBII, 35° C. 18 hr, read-out: Minimal Inhibitory Concentration
Procedure: as §1

[12] = test system: K. pn GC 6651 (TEM-1 + SHV-1 + SHV-5); settings: Klebsiella pneumoniae, β-lactamase class A, A (ESBL), MHBII, 35° C. 18 hr, read-out: Minimal Inhibitory Concentration
Procedure: as §1

[13] = test system: K. pn GC 6655 (TEM-1 + ACT-1); settings: Klebsiella pneumoniae, β-lactamase class A, C, MHBII, 35° C. 18 hr, read-out: Minimal Inhibitory Concentration
Procedure: as §1

[14] = test system: P. aeruginosa PT 8503 PTZ-R; settings: Pseudomonas aeruginosa, PT8503PTZR; P. aeruginosa PT 8503, piperacillin-tazobactam-resistant; MHBII, 35° C. 18 hr; read-out: Minimal Inhibitory Concentration
Procedure: as §1

[15] = test system: S. typhimurium GC 4197 CTX-M-5; settings: Salmonella enterica, β-lactamase class A (ESBL), MHBII, 35° C. 18 hr, read-out: Minimal Inhibitory Concentration
Procedure: as §1

K. pn GC 1832 (SHV-4) = settings: Klebsiella pneumoniae, β-lactamase class A (ESBL), MHBII, 35° C. 18 hr, read-out: Minimal Inhibitory Concentration
Procedure: as §1

[16] = test system: S. marcescens GC 1781 (Sme-1 + AmpC); settings: Serratia marcescens, β-lactamase class A (Cb'ase), C, MHBII, 35° C. 18 hr, read-out: Minimal Inhibitory Concentration
Procedure: as §1

[17] = test system: K. oxytoca GC 7627 TEM-1 K1 KPC-2; settings: Klebsiella oxytoca, 18 h, read-out: Minimal Inhibitory Concentration
Procedure: as §1

[18] = test system: E. coli ATCC 25922 (none); settings: Escherichia coli, ATCC25922, β-lactamase class none, MHBII, 35° C. 18 hr, read-out: Minimal Inhibitory Concentration
Procedure: as §1

[19] = test system: E. cloacae GC 4142 (AmpC); settings: Enterobacter cloacae
Procedure: as §1

E. coli GC 2009 (TEM-10) = settings: Escherichia coli, 18 h, read-out: Minimal Inhibitory Concentration
Procedure: as §1

[20] = test system: E. coli GC 2017 (TEM-10 + pl 6.3; 8.1); settings: Escherichia coli, β-lactamase class A (ESBL), MHBII, 35° C. 18 hr, read-out: Minimal Inhibitory Concentration
Procedure: as §1

[21] = test system: E. coli GAR 6649 TEM, OXA, CTX (By PCR only); settings: Escherichia coli, β-lactamase class A, A (ESBL), D, MHBII, 35° C. 18 hr, read-out: Minimal Inhibitory Concentration
Procedure: as §1

For `CO/N=C(\C(=O)N[C@@H]1C(=O)N2C(C(=O)[O-])=C(C[N+]3(C)CCCC3)CS[C@H]12)c1csc(N)n1` [Cefepime], the MIC [1] was 8 µg/mL (≈ 16.6 µM), the MIC [2] was 0.25 µg/mL (≈ 0.52 µM) and the MIC [3] was 1 µg/mL (≈ 2.08 µM). The MIC [4] was 2 µg/mL (≈ 4.16 µM), the MIC [5] was 4 µg/mL (≈ 8.32 µM) and the MIC [6] was > 16 µg/mL. The MIC [7] was > 16 µg/mL, the MIC [8] was 2 µg/mL (≈ 4.16 µM) and the MIC [9] was 16 µg/mL (≈ 33.3 µM). It also gave an MIC [10] of 8 µg/mL (≈ 16.6 µM), an MIC [11] of 0.06 µg/mL (≈ 0.125 µM) and an MIC (K. pn GC 1830 (SHV-2)) of 2 µg/mL (≈ 4.16 µM). The MIC [12] was 2 µg/mL (≈ 4.16 µM), the MIC [13] was 1 µg/mL (≈ 2.08 µM) and the MIC [14] was 8 µg/mL. The MIC [15] was > 16 µg/mL, the MIC (K. pn GC 1832 (SHV-4)) was 2 µg/mL (≈ 4.16 µM) and the MIC [16] was 0.06 µg/mL (≈ 0.125 µM). For the same compound, the MIC [17] was > 16 µg/mL, the MIC [18] was 0.03 µg/mL (≈ 0.0624 µM) and the MIC ([19]; E. cloacae GC 4142, β-lactamase class C, MHBII, 35° C. 18 hr, read-out: Minimal Inhibitory Concentration) was 8 µg/mL (≈ 16.6 µM). The MIC ([19]; Table 3, E. cloacae GC4142 AmpC, read-out: MIC* (minimum inhibitory concentration)) was 16 µg/mL (≈ 33.3 µM), the MIC (E. coli GC 2009 (TEM-10)) was > 16 µg/mL and the MIC [20] was 16 µg/mL (≈ 33.3 µM). For the same compound, the MIC [21] was > 16 µg/mL.
